From the supplement of paper PMC9013687

Legend:
Danio rerio embryo [1] = assay: EC50 Yolk sac size_Increase; conditions: exposure time: 4 dpf
Procedure: (§1)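 Zebrafish embryos (UFZ-OBI strain) were exposed from 2 hpf for 48 h (2 dpf) or 96 h (4 dpf) at 28 °C; spontaneous tail coiling was scored at 25 hpf. Morphological features from automated image analysis (FishInspector), heart rate and locomotor response were fitted with drc models. Quantal endpoints were dichotomised at 2.5 SD from controls and fitted with a log-logistic model; heart rate, pigmentation and STC were normalised to the replicate control mean. Betamethasone was tested as betamethasone dipropionate, diflorasone as diflorasone diacetate.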

Danio rerio embryo [2] = assay: EC10 Otolith-eye distance_Decrease; higher = less potent; conditions: exposure time: 4 dpf
Procedure: as §1

Danio rerio embryo [3] = assay: EC20 Eye size_Decrease; higher = less potent
Procedure: as §1

Danio rerio embryo [4] = assay: EC20 Head trunk angle_Decrease; higher = less potent; conditions: exposure time: 2 dpf
Procedure: as §1

Danio rerio embryo [5] = assay: EC50 Body length_Decrease
Procedure: as §1

Danio rerio embryo [6] = assay: EC10 Curvature_Increase; higher = less potent
Procedure: as §1

Danio rerio embryo [7] = assay: EC50 Curvature_Increase
Procedure: as §1

Danio rerio embryo [8] = assay: EC10 Pericard size_Increase; higher = less potent
Procedure: as §1

Danio rerio embryo [9] = assay: EC20 Eye-jaw distance_Decrease; higher = less potent; conditions: exposure time: 4 dpf
Procedure: as §1

Danio rerio embryo [10] = system: Danio rerio embryo
Procedure: as §1

Danio rerio embryo [11] = assay: EC50 Eye-jaw distance_Decrease; conditions: exposure time: 4 dpf
Procedure: as §1

Danio rerio embryo [12] = assay: EC20 Curvature_Increase; higher = less potent
Procedure: as §1

Danio rerio embryo [13] = assay: EC10 Bladder size_Decrease; higher = less potent; conditions: exposure time: 4 dpf
Procedure: as §1

Danio rerio embryo [14] = assay: EC20 Otolith-eye distance_Decrease; higher = less potent; conditions: exposure time: 4 dpf
Procedure: as §1

Danio rerio embryo [15] = assay: EC10 Yolk sac size_Increase; higher = less potent; conditions: exposure time: 4 dpf
Procedure: as §1

Danio rerio embryo [16] = conditions: exposure time: 4 dpf
Procedure: as §1

Danio rerio embryo [17] = assay: EC50 Otolith-eye distance_Decrease; conditions: exposure time: 4 dpf
Procedure: as §1

Danio rerio embryo [18] = assay: EC20 Pericard size_Increase; higher = less potent
Procedure: as §1

Danio rerio embryo [19] = assay: EC10 Body length_Decrease; higher = less potent
Procedure: as §1

Danio rerio embryo [20] = assay: EC20 Body length_Decrease; higher = less potent
Procedure: as §1

Danio rerio embryo [21] = assay: EC20 LMR dark; higher = less potent; conditions: exposure time: 4 dpf
Procedure: as §1

Danio rerio embryo [22] = assay: EC50 Pericard size_Increase
Procedure: as §1

Danio rerio embryo [23] = assay: EC10 Eye-jaw distance_Decrease; higher = less potent; conditions: exposure time: 4 dpf
Procedure: as §1

Danio rerio embryo [24] = assay: spontaneous tail coiling frequency (coils/min/embryo); higher = more spontaneous movement; conditions: 25 hpf
Procedure: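 Spontaneous tail coilings of zebrafish embryos exposed from 2 hpf were recorded at 24-25 hpf in 1-min videos and detected by a KNIME workflow from grey-value variance. Betamethasone was tested as the dipropionate, diflorasone as the diacetate.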

Danio rerio embryo [25] = assay: EC20 Yolk sac size_Increase; higher = less potent; conditions: exposure time: 4 dpf
Procedure: as §1

Danio rerio embryo [26] = assay: EC10 LMR dark; higher = less potent; conditions: exposure time: 4 dpf
Procedure: as §1

Danio rerio embryo [27] = assay: EC20 Bladder size_Decrease; higher = less potent; conditions: exposure time: 4 dpf
Procedure: as §1

Danio rerio embryo [28] = assay: EC10 Any effect; higher = less potent
Procedure: as §1

Danio rerio embryo [29] = assay: EC50 Bladder size_Decrease; conditions: exposure time: 4 dpf
Procedure: as §1

Danio rerio embryo [30] = assay: EC20 Any effect; higher = less potent
Procedure: as §1

CC(C)(C)C(O)/C(=C/c1ccc(Cl)cc1Cl)n1cncn1 (stereo unspecified) [Diniconazole]
Conditions | EC10 Bladder size Decrease [µM] | EC10 Eye-jaw distance Decrease [µM] | EC10 LMR dark [µM] | EC10 Otolith-eye distance Decrease [µM] | EC10 Yolk sac size Increase [µM] | EC20 Bladder size Decrease [µM] | EC20 Eye-jaw distance Decrease [µM] | EC20 Head trunk angle Decrease [µM] | EC20 LMR dark [µM] | EC20 Otolith-eye distance Decrease [µM] | EC20 Yolk sac size Increase [µM] | EC50 Bladder size Decrease [µM] | EC50 Eye-jaw distance Decrease [µM] | EC50 LMR dark [µM] | EC50 Otolith-eye distance Decrease [µM] | EC50 Yolk sac size Increase [µM]
Danio rerio embryo [1] | – | – | – | – | – | – | – | – | – | – | – | – | – | – | – | 3.05
Danio rerio embryo [2] | – | – | – | 3.74 | – | – | – | – | – | – | – | – | – | – | – | –
Danio rerio embryo [4] | – | – | – | – | – | – | – | 3.2 | – | – | – | – | – | – | – | –
Danio rerio embryo [9] | – | – | – | – | – | – | 2.57 | – | – | – | – | – | – | – | – | –
Danio rerio embryo [11] | – | – | – | – | – | – | – | – | – | – | – | – | 2.91 | – | – | –
Danio rerio embryo [13] | 1.71 | – | – | – | – | – | – | – | – | – | – | – | – | – | – | –
Danio rerio embryo [14] | – | – | – | – | – | – | – | – | – | 4.28 | – | – | – | – | – | –
Danio rerio embryo [15] | – | – | – | – | 1.26 | – | – | – | – | – | – | – | – | – | – | –
Danio rerio embryo [16] | – | – | – | – | – | – | – | – | – | – | – | – | – | 4.3 | – | –
Danio rerio embryo [17] | – | – | – | – | – | – | – | – | – | – | – | – | – | – | 5.4 | –
Danio rerio embryo [21] | – | – | – | – | – | – | – | – | 2.86 | – | – | – | – | – | – | –
Danio rerio embryo [23] | – | 2.39 | – | – | – | – | – | – | – | – | – | – | – | – | – | –
Danio rerio embryo [25] | – | – | – | – | – | – | – | – | – | – | 1.74 | – | – | – | – | –
Danio rerio embryo [26] | – | – | 2.25 | – | – | – | – | – | – | – | – | – | – | – | – | –
Danio rerio embryo [27] | – | – | – | – | – | 1.92 | – | – | – | – | – | – | – | – | – | –
Danio rerio embryo [29] | – | – | – | – | – | – | – | – | – | – | – | 2.35 | – | – | – | –

Conditions | EC10 Any effect [µM] | EC10 Body length Decrease [µM] | EC10 Curvature Increase [µM] | EC10 Pericard size Increase [µM] | EC20 Any effect [µM] | EC20 Body length Decrease [µM] | EC20 Curvature Increase [µM] | EC20 Eye size Decrease [µM] | EC20 Pericard size Increase [µM] | EC50 Any effect [µM] | EC50 Body length Decrease [µM] | EC50 Curvature Increase [µM] | EC50 LMR ligth decrease [µM] | EC50 Pericard size Increase [µM] | EC50 Pigmentation increase [µM] | spontaneous tail coiling frequency
Danio rerio embryo [3], exposure time: 2 dpf | – | – | – | – | – | – | – | 6.78 | – | – | – | – | – | – | – | –
Danio rerio embryo [3], exposure time: 4 dpf | – | – | – | – | – | – | – | 3.61 | – | – | – | – | – | – | – | –
Danio rerio embryo [5], exposure time: 2 dpf | – | – | – | – | – | – | – | – | – | – | 8.59 | – | – | – | – | –
Danio rerio embryo [5], exposure time: 4 dpf | – | – | – | – | – | – | – | – | – | – | 6.97 | – | – | – | – | –
Danio rerio embryo [6], exposure time: 2 dpf | – | – | 3.94 | – | – | – | – | – | – | – | – | – | – | – | – | –
Danio rerio embryo [6], exposure time: 4 dpf | – | – | 2.76 | – | – | – | – | – | – | – | – | – | – | – | – | –
Danio rerio embryo [7], exposure time: 2 dpf | – | – | – | – | – | – | – | – | – | – | – | 7.07 | – | – | – | –
Danio rerio embryo [7], exposure time: 4 dpf | – | – | – | – | – | – | – | – | – | – | – | 6.35 | – | – | – | –
Danio rerio embryo [8], exposure time: 2 dpf | – | – | – | 1.54 | – | – | – | – | – | – | – | – | – | – | – | –
Danio rerio embryo [8], exposure time: 4 dpf | – | – | – | 3.8 | – | – | – | – | – | – | – | – | – | – | – | –
Danio rerio embryo [10], exposure time: 2 dpf | – | – | – | – | – | – | – | – | – | 3.77 | – | – | – | – | – | –
Danio rerio embryo [10], exposure time: 4 dpf | – | – | – | – | – | – | – | – | – | 2.61 | – | – | 2.31 | – | 11.8 | –
Danio rerio embryo [12], exposure time: 2 dpf | – | – | – | – | – | – | 4.89 | – | – | – | – | – | – | – | – | –
Danio rerio embryo [12], exposure time: 4 dpf | – | – | – | – | – | – | 3.75 | – | – | – | – | – | – | – | – | –
Danio rerio embryo [18], exposure time: 2 dpf | – | – | – | – | – | – | – | – | 2.51 | – | – | – | – | – | – | –
Danio rerio embryo [18], exposure time: 4 dpf | – | – | – | – | – | – | – | – | 3.81 | – | – | – | – | – | – | –
Danio rerio embryo [19], exposure time: 2 dpf | – | 6.73 | – | – | – | – | – | – | – | – | – | – | – | – | – | –
Danio rerio embryo [19], exposure time: 4 dpf | – | 5.67 | – | – | – | – | – | – | – | – | – | – | – | – | – | –
Danio rerio embryo [20], exposure time: 2 dpf | – | – | – | – | – | 7.36 | – | – | – | – | – | – | – | – | – | –
Danio rerio embryo [20], exposure time: 4 dpf | – | – | – | – | – | 6.12 | – | – | – | – | – | – | – | – | – | –
Danio rerio embryo [22], exposure time: 2 dpf | – | – | – | – | – | – | – | – | – | – | – | – | – | 5.78 | – | –
Danio rerio embryo [22], exposure time: 4 dpf | – | – | – | – | – | – | – | – | – | – | – | – | – | 3.83 | – | –
Danio rerio embryo [24], 1.13 µM | – | – | – | – | – | – | – | – | – | – | – | – | – | – | – | 1.89
Danio rerio embryo [24], 1.7 µM | – | – | – | – | – | – | – | – | – | – | – | – | – | – | – | 2.58
Danio rerio embryo [24], 2.55 µM | – | – | – | – | – | – | – | – | – | – | – | – | – | – | – | 2.31
Danio rerio embryo [24], 3.8 µM | – | – | – | – | – | – | – | – | – | – | – | – | – | – | – | 2.05
Danio rerio embryo [24], 5.75 µM | – | – | – | – | – | – | – | – | – | – | – | – | – | – | – | 2.87
Danio rerio embryo [24], 7.66 µM | – | – | – | – | – | – | – | – | – | – | – | – | – | – | – | 3.42
Danio rerio embryo [24], 9.2 µM | – | – | – | – | – | – | – | – | – | – | – | – | – | – | – | 3.35
Danio rerio embryo [28], exposure time: 2 dpf | 2.63 | – | – | – | – | – | – | – | – | – | – | – | – | – | – | –
Danio rerio embryo [28], exposure time: 4 dpf | 1.56 | – | – | – | – | – | – | – | – | – | – | – | – | – | – | –
Danio rerio embryo [30], exposure time: 2 dpf | – | – | – | – | 3 | – | – | – | – | – | – | – | – | – | – | –
Danio rerio embryo [30], exposure time: 4 dpf | – | – | – | – | 1.89 | – | – | – | – | – | – | – | – | – | – | –
